According to US7781483B2, “Benzopyran compound” (Nissan Chemical Industries, Ltd., priority 2004, dated 2010):
Structures can show the parent of a compound that is named as a salt.

What follows are molecules tested on Atrium (assay: Effects on the effective refractory period (S1-S2 extrastimulus technique, anesthetized beagles under vagal nerve stimulation)). Conditions: 0.3 mg/kg intravenously, determined from 5 min after administration, bilateral vagal nerve stimulation, basic cycle length 300 msec, [after]-[before] drug administration.
Type: in vivo
Protocol: Beagles were anesthetized with pentobarbital sodium and thoracotomy was done along the median line under a respirator and the incision was made on the pericardium to expose the heart. An electrocardiogram (ECG) was recorded using bipolar electrodes attached to the surface of the right atrial free wall, right atrial auricle, and right ventricular free wall. The vagal nerves were stimulated using an electrostimulation device with Nichrome wires inserted into the vagal nerves in the neck bilaterally. The conditions for electrostimulation to the vagal nerves were set such that the RR intervals on ECG were prolonged by about 100 msec compared with those before the stimulation was started.
Atrial and ventricular effective refractory periods were determined by S1-S2 extrastimulus technique at basic cycle length of 300 msec during bilateral vagal nerve stimulation, using programmable electric stimulator. A train of 10 basic stimuli (S1) was followed by a premature extrastimulus (S2) at 2 times diastolic threshold.
For evaluation of drug effects, the atrial and ventricular effective refractory periods were determined before drug administration, then respective compound was administrated intravenously at the dose of 0.3 mg/kg, and the atrial and ventricular effective refractory periods were determined from 5 min after the administration.
The results were shown as the prolongation time on the atrial and ventricular effective refractory periods, i.e. [effective refractory period after drug administration]−[effective refractory period before drug administration] (msec).

SMILES	Prolongation time on the effective refractory period (msec) Atrium [ms]
CN(c1ccc2c(c1)OC(C)(C)[C@H](O)[C@H]2NCCc1ccccc1)S(C)(=O)=O (relative stereo) [Synthesis Example 12, N-{(3R*,4S*)-3-hydroxy-2,2-dimethyl-4-[(2-phenylethyl)amino]-3,4-dihydro-2H-benzopyran-7-yl}-N-methylmethanesulfonamide hydrochloride]	28
COc1cc2c(cc1NS(C)(=O)=O)OC(C)(C)[C@H](O)[C@H]2NCCC1CCCCC1 (relative stereo) [Synthesis Example 4, N-{(3R*,4S*)-4-[(2-Cyclohexylethyl)amino]-3-hydroxy-6-methoxy-2,2-dimethyl-3,4-dihydro-2H-1-benzopyran-7-yl}methanesulfonamide]	26
COc1cc2c(cc1NS(C)(=O)=O)OC(C)(C)[C@H](O)[C@H]2NCCc1ccccc1 (relative stereo) [Synthesis Example 1, N-{(3R*,4S*)-3-Hydroxy-6-methoxy-2,2-dimethyl-4-[(2-phenylethyl)amino]-3,4-dihydro-2H-1-benzopyran-7-yl}methanesulfonamide]	24
CC1(C)Oc2cc(NS(C)(=O)=O)ccc2[C@H](NCCc2ccccc2)[C@H]1O (relative stereo) [Synthesis Example 7, N-{(3R*,4S*)-3-Hydroxy-2,2-dimethyl-4-[(2-phenylethyl)amino]-3,4-dihydro-2H-1-benzopyran-7-yl}methanesulfonamide maleate]	32
Br.CC1(C)Oc2cc(NS(C)(=O)=O)c(O)cc2[C@H](NCCc2ccccc2)[C@H]1O (relative stereo) [Synthesis Example 2, N-{(3R*,4S*)-3,6-Dihydroxy-2,2-dimethyl-4-[(2-phenylethyl)amino]-3,4-dihydro-2H-1-benzopyran-7-yl}methanesulfonamide]	26
COc1cc2c(cc1N(C)S(C)(=O)=O)OC(C)(C)[C@H](O)[C@H]2NCCc1ccccc1 (relative stereo) [Synthesis Example 3, N-{(3R*,4S*)-3-Hydroxy-6-methoxy-2,2-dimethyl-4-[(2-phenylethyl)amino]-3,4-dihydro-2H-1-benzopyran-7-yl}-N-methylmethanesulfonamide]	20
